Reference: patent publication US20250019357A1, “[…] MORPHIC FORMS AND MIXTURES FOR THE TREATMENT OF MENTAL DISORDERS OR MENTAL ENHANCEMENT” (TACTOGEN INC, priority 2021, published 2025)
“Also recorded” adds a separate entry of the source. Read-outs that look alike come from different tables or passages of the source.

Experiments:
[1] = molecular target: Human Trace Amine Associated Receptor (hTAAR1) (Homo sapiens (Human), UniProt Q96RJ0); experiment: hTAAR1 agonist assay (DiscoverX cAMP Hunter); type: cell-based; details: for hTAAR1 maximum detected effects: seven concentrations between 0.05692 and 60 μM
[2] = molecular target: dopamine transporter (DAT) (Rattus norvegicus (Rat), UniProt P23977); experiment: Rat synaptosome DAT release assay ([3H]MPP+); details: read-out: dopamine Emax (maximum dopamine increase relative to reference drug)
[3] = molecular target: serotonin (5-HT) transporter (SERT) (Rattus norvegicus (Rat), UniProt P31652); experiment: Rat synaptosome SERT uptake inhibition assay ([3H]5-HT)
SERT [4] = molecular target: T1, SERT (Rattus norvegicus (Rat), UniProt P31652); experiment: In vitro rat synaptosome serotonin release (efflux) assay (Examples 9, 58); type: biochemical; details: rat synaptosomes
Source text: (§1) FIG. 7B is a graph showing results from an in vitro rat synaptosome serotonin release assay. […] Details and procedural information for this assay are described in Example 9. The x-axis is the log [dose] concentration measured in molar and the y-axis is the [^3H]-labeled 5-HT release measured in percent.
as §1, with “177” for “7B”, “58.” for “9.”, “x-axis” for “x-axis is”

[5] = molecular target: human 5-HT transporter (hSERT) (Homo sapiens (Human), UniProt P31645); experiment: Human serotonin transporter  assay ([3H]imipramine radioligand, CHO cells); type: binding; details: for IC50: 2 nM [3H]imipramine, CHO cells, read-out: SERT IC50; for Ki: Cheng Prusoff equation, read-out: SERT Ki
Experimental: EXAMPLE 8: Human Serotonin Transporter (SERT, SLC6A4) Functional Antagonist Uptake Assay
Benzofuran derivatives were evaluated for inhibiting the human 5-HT transporter (hSERT) as expressed in CHO cells using an antagonist radioligand assay (Tatsumi, M. et al. (1999), Eur. J. Pharmacol., 368: 277-283). […] Test compounds were assayed in three trials at […], and 0.94868 μM.
EXAMPLE 57: Human Serotonin Transporter (SERT, SLC6A4) Functional Antagonist Uptake Assay

NET = experiment: In vitro rat synaptosome norepinephrine release assay (Examples 9, 58); type: biochemical; details: rat synaptosomes
Source text: as §1, with “8C” for “7B”, “from” for “from an”, “synaptosome dopamine and norepinephrine release assays. […] Previously presented” for “synaptosome”, “results are included for comparison.” for “release assay.”
(§2) FIG. 178 is a graph showing results from in vitro rat synaptosome dopamine and norepinephrine release assays. […] Previously presented serotonin results are included for comparison. […] Details and procedural information for this assay are described in Example 58. The x-axis the log [dose] concentration measured in Molar units and the y-axis is the [^3H]-labeled 5-HT release measured in percent of maximum produced by the comparison releaser.

SERT [6] = molecular target: T1, SERT; experiment: In vitro rat synaptosome serotonin uptake inhibition assay (Examples 9, 58); type: biochemical; details: rat synaptosomes
Source text: as §1, with “FIG. 7A” for “FIG. 7B”, “serotonin uptake inhibition” for “serotonin release”, “5-HT reuptake” for “5-HT release”
FIG. 176 is a graph showing results from an in vitro rat synaptosome serotonin uptake inhibition assay. […] Details and procedural information for this assay are described in Example 58. The x-axis the log [dose] concentration is measured in Molar units and the y-axis is the [^3H]-labeled 5-HT reuptake measured in percent of maximum produced by the comparison releaser.

[7] = Human self-reported effects of non-racemic 5-MAPB (Good, Bad, Open ratings); type: in vivo
Experimental: The effects of non-racemic 5-MAPB HCl were tested by a healthy human individual at four different ratios of enantiomers plus the racemate as a control: • 54 mg S and 0 mg R (100% S) • 47 mg S and 7 mg R (about 87% S) • 36 mg S and 18 mg R (about 67% S) • 27 mg S and 27 mg R (about 50% S) • 7 mg S and 47 mg R (about 13% S)
Two trials were carried out at each ratio, except for 13% S where only one was conducted. Trials were at least 72 h apart.
5-MAPB HCl was dissolved in 1.5 ml distilled water and consumed in two halves, separated by 1 hour. Starting at 3 hours after administration, tablets of 250 mg ascorbic acid and capsules of 300 mg alpha lipoic acid were taken ad libitum (approximately every hour for a total of 4 administrations).
Measurements were made approximately every 2 hours until post 6 hours and the maximum ratings per session were analyzed. Additionally, an index of good drug effects versus emotional openness, calculated as (Open−Good)/(200, the theoretical maximum of Open+ Good), was constructed at each time point and the maximum analyzed. In healthy volunteers, Good Ratings can be considered a predictor of abuse liability. Accordingly, this index can be used as an indicator of the balance of a therapeutic effect (emotional openness) vs abuse liability.
Historic data of two trials 50 mg RS-5-MAPB Cl from the same individual were also included in the analysis for comparison.
Table 24 below indicates maximums for individual measures and for the open vs good index, averaged from all sessions (N=2, except for 13% S-5-MAPB where N=1). Qualitatively, all conditions produced subtle emotional effects, including decreases in negative affect and increases in stability of mood, without sensory distortion.

[8] = Scale-up and solid-state stability study; type: physicochemical; details: ~10 mg staged at 40° C./75% RH for 1 day, analyzed by PXRD
Experimental: Scale up study of selected S-5-MAPB salts (Patterns 1A, 2A, and 10A) to −70 mg was completed. […] All three samples were then tested for their solid-state stability as shown below in Table 17. (API=5-MAPB HCl)
Scale up study of selected salts (S-5-MAPB Patterns 1A, 4A, and 8A) to −250 mg completed. Patterns 1A, 4A, and 8A were all scaled up successfully. All three samples were then tested for their solid-state stability as shown below in Table 19. (API=S-5-MAPB Pure Enantiomer)

5-HT1BR = 5-HT1BR (Homo sapiens (Human), UniProt P28222); type: cell-based; details: for Hill Coef.: 5-HT1BR agonist curve; for EC50: Table 3
[9] = tested on: norepinephrine transporter (NET); experiment: Rat synaptosome NET release assay ([3H]MPP+); details: rat synaptosomes
DAT = DAT (Rattus norvegicus (Rat), UniProt P23977); experiment: In vitro rat synaptosome dopamine release assay (Examples 9, 58); type: biochemical; details: rat synaptosomes
Source text: as §1, with “8C” for “7B”, “from” for “from an”, “synaptosome dopamine and norepinephrine release assays. […] Previously presented” for “synaptosome”, “results are included for comparison.” for “release assay.”
as §2

[10] = molecular target: hTAAR1 (human trace amine-associated receptor) (Homo sapiens (Human), UniProt Q96RJ0); experiment: Interaction with hTAAR1; details: concentrations up to 60 μM
5-HT2A receptor = 5-HT2A receptor (Homo sapiens (Human), UniProt P28223); experiment: 5-HT2A agonist activity (Example 6); type: cell-based
[11] = Marble burying assay (Example 5); type: in vivo; details: individual enantiomers vs the racemic mixture
Source text: FIG. 2 is a chart showing results from the marble burying assay to measure decreased anxiety and neuroticism resulting from treatment with S-5-MAPB, R/S-5-MAPB, and R-5-MAPB. […] The y-axis gives the compound and dose. Error bars indicate 95% confidence intervals. Details and procedural information for this assay are described in Example 5.

Swiss CD1 mice = experiment: Marble burying test; type: in vivo; details: enantiomers given simultaneously
Source text: The test involved the placement of a standardized number of marbles gently onto the surface of a layer of bedding material within a testing arena. Mice were then introduced into the arena for a standardized amount of time and allowed to explore the environment. The outcome measure of the test was the number of marbles covered as scored by automatic scoring software or blinded observers. General locomotor activity, often operationalized as total distance traveled, was used as a control measure. Compounds that attenuate anxiety, neuroticism, or obsessive-compulsive behavior decrease marble burying. The racemates and individual enantiomers of 5-MAPB, 6-MAPB, BK-5-MAPB, and BK-5-MBPB were assessed with the marble burying assay.
The resulting data were analyzed with a linear model in which marble burying was predicted by S-dose, R-dose and an interaction term.
Marble burying experiments were conducted by trained and authorized personnel and were in compliance with applicable guidelines for experiments with laboratory animals. Manipulation of animals was conducted carefully to reduce stress to a minimum.
Test animals are Swiss CD1 mice, 5-6 weeks old, that have not been subjected to prior experiments. […]
The number of marbles at least ⅔ buried was counted at the end of the session as the primary outcome measure.

[12] = one healthy human, 54 mg total 5-MAPB HCl oral in two halves 1 hour apart, session maximum averaged (N=2, 13% S N=1)
[13] = S-5-MAPB salt scale-up (~250 mg, API=S-5-MAPB Pure Enantiomer)
[14] = read-out: Inhibition of [3H]5-HT Uptake at SERT IC50, rat brain synaptosomes, 5 nM [3H]5-HT
[15] = S-5-MAPB salt scale-up (~70 mg, API=5-MAPB HCl)

## NCCc1ccc(O)cc1 [p-Tyramine, reference compound]
[1]; positive control
  EC50: 1140 nM
  hTAAR1 Hill constant: 0.7453

## CC[C@@H](Cc1ccc2ccoc2c1)NC [Pattern S-6-MBPB, S-6-MBPB]
[1]
  hTAAR1 maximum detected effects: 0.6%
[2]
  Emax: 72%
[3]
  IC50: 217 ± 45.8 nM

## CC[C@@H](Cc1ccc2occc2c1)NC [Pattern S-5-MBPB, S-5-MBPB]
SERT [4]
  [3H]-labeled 5-HT release: rapidly increases extracellular serotonin by stimulating release
[5]
  IC50: < 950 nM
NET
  norepinephrine release: rapidly increases extracellular norepinephrine by stimulating release
SERT [6]
  [3H]-labeled 5-HT reuptake (serotonin uptake inhibition): rapidly increases extracellular serotonin by inhibiting reuptake

## CN[C@@H](C)Cc1ccc2occc2c1 [100% S-5-MAPB]
[7]; healthy human individual, 54 mg S and 0 mg R
  duration of effects: effects of less duration than conditions that included the R-enantiomer
[7]; [12]
  Bad (bad drug effects), maximum 0-100 rating: 1%
  Good (good drug effects), maximum 0-100 rating: 55%
  Open (emotional openness), maximum 0-100 rating: 65%

## CN[C@@H](C)Cc1ccc2occc2c1.O=P(O)(O)O (single isomer, unassigned) [H3PO4 (Pattern 4A), 5-MAPB Enantiomer H3PO4]
[8]; [13]
  PXRD Pattern (40° C./75% RH sample): 4A

## CN[C@@H](C)Cc1ccc2ccoc2c1 [Pattern S-6-MAPB, S-6-MAPB]
5-HT1BR
  Hill Coef.: 1.21
  EC50: 102 nM
SERT [4]
  [3H]-labeled 5-HT release: rapidly increases extracellular serotonin by stimulating release
[5]
  Ki: 3100 nM
[3]; [14]
  IC50: 90.9 ± 5.9 nM
SERT [6]
  [3H]-labeled 5-HT reuptake (serotonin uptake inhibition): rapidly increases extracellular serotonin by inhibiting reuptake

## CC[C@H](Cc1ccc2occc2c1)NC [Pattern R-5-MBPB, R-5-MBPB]
[9]
  norepinephrine Emax: 58%
SERT [4]
  [3H]-labeled 5-HT release: rapidly increases extracellular serotonin by stimulating release
DAT
  dopamine release / dopamine uptake: reuptake inhibitors of dopamine; also recorded: dopamine uptake inhibitors
[5]
  IC50: < 950 nM
[2]
  Emax: ~25%
NET
  norepinephrine release: partial releasers of norepinephrine; also recorded: rapidly increases extracellular norepinephrine by stimulating release
SERT [6]
  [3H]-labeled 5-HT reuptake (serotonin uptake inhibition): rapidly increases extracellular serotonin by inhibiting reuptake

## CNC(C)Cc1ccc2occc2c1.O=C(O)/C=C\C(=O)O (centres unmarked) [Maleic (Pattern 10A), 5-MAPB maleic acid]
[8]; [15]
  PXRD Pattern (40° C./75% RH sample): 10A

## CC[C@H](Cc1ccc2ccoc2c1)NC [Pattern R-6-MBPB, R-6-MBPB]
[1]
  hTAAR1 maximum detected effects: 0.9%
[2]
  Emax: ~25%
[3]
  IC50: 702 ± 262 nM

## CCC(Cc1ccc2ccoc2c1)NC (racemic) [Pattern 6-MBPB, 6-MBPB]
[10]
  interactions with hTAAR1: lacks interactions with hTAAR1
SERT [4]
  [3H]-labeled 5-HT release: 5-HT releaser
5-HT2A receptor
  5-HT2A agonist activity: poor agonist of 5-HT2A
NET
  norepinephrine release: only partial releaser of norepinephrine

## Br.CNC(C)Cc1ccc2occc2c1 (centres unmarked) [HBr (Pattern 2A), 5-MAPB HBr]
[8]; [15]
  PXRD Pattern (40° C./75% RH sample): Pattern 2B

## CNC(C)Cc1ccc2occc2c1.Cl (centres unmarked) [HCl (Pattern 1A), 5-MAPB HCl]
[8]; [15]
  PXRD Pattern (40° C./75% RH sample): Pattern 1A
[8]; [13]
  PXRD Pattern (40° C./75% RH sample): 1A

## CN[C@H](C)Cc1ccc2occc2c1 [Pattern R-5-MAPB, R-5-MAPB]
5-HT1BR
  Hill Coef.: 1.13
  EC50: 981 nM
SERT [4]
  [3H]-labeled 5-HT release: rapidly increases extracellular serotonin by stimulating release
[5]
  Ki: 1200 nM
[3]; [14]
  IC50: 150 ± 8.6 nM
SERT [6]
  [3H]-labeled 5-HT reuptake (serotonin uptake inhibition): rapidly increases extracellular serotonin by inhibiting reuptake

## CN[C@H](C)Cc1ccc2ccoc2c1 (stereo in doubt) [Pattern R-6-MAPB, 1-(benzofuran-6-yl)-N-methylpropan-2-amine]
5-HT1BR
  Hill Coef.: 1.14
  EC50: 1480 nM
SERT [4]
  [3H]-labeled 5-HT release: rapidly increases extracellular serotonin by stimulating release
[5]
  Ki: 11000 nM
[3]; [14]
  IC50: 623 ± 31.2 nM
SERT [6]
  [3H]-labeled 5-HT reuptake (serotonin uptake inhibition): rapidly increases extracellular serotonin by inhibiting reuptake

## CNC(C)Cc1ccc2occc2c1 (centres unmarked) [Pattern 5-MAPB, 5-MAPB]
[11]
  anxiolytic effect, percent of marbles left unburied versus placebo: non-additive effects of the two enantiomers
Swiss CD1 mice
  marble burying: interaction between enantiomers: strong non-additive interaction

## CN[C@@H](C)Cc1ccc2occc2c1.O=C(O)C(=O)O (single isomer, unassigned) [Oxalic (Pattern 8A), 5-MAPB Enantiomer oxalic acid]
[8]; [13]
  PXRD Pattern (40° C./75% RH sample): 8A

## CN[C@@H](C)Cc1ccc2occc2c1 [Pattern S-5-MAPB, S-5-MAPB]
5-HT1BR
  Hill Coef.: 1.08
  EC50: 161 nM
SERT [4]
  [3H]-labeled 5-HT release: rapidly increases extracellular serotonin by stimulating release
[5]
  Ki: 1500 nM
[3]; [14]
  IC50: 60.4 ± 2.8 nM
SERT [6]
  [3H]-labeled 5-HT reuptake (serotonin uptake inhibition): rapidly increases extracellular serotonin by inhibiting reuptake
